From the NIST ThermoML archive (doi:10.1021/acs.jced.8b00425)
± gives the expanded uncertainty stated by the source.

Legend:
[1] = Crystal; DSC
[2] = Molar enthalpy of transition or fusion; settings: Crystal; DSC

With O=c1[nH]cc(F)c(=O)[nH]1 [5-fluoro-2,4(1H,3H)-pyrimidinedione] the Triple point temperature [1] was 555.66 ± 0.88 K and the “Molar enthalpy of transition or fusion” value [2] was 6.88 ± 0.177 kcal/mol.
